EP4722207A1, “OXOISOINDOLINYL-SUBSTITUTED TETRAHYDROPYRIMIDINEDIONE DERIVATIVE AND USE THEREOF” (Gluetacs Therapeutics (Shanghai) Co., Ltd., priority 2023, dated 2024)

Columns and labels:
Type in all cases: cell-based
Conditions in all cases: compounds at 50 nM and 500 nM, 24 hours
IKZF1 = biological target: T1, IKZF1 (Homo sapiens, UniProt Q13422+Q96SW2); experiment: Western-blot assay, substrate protein degradation in hPBMCs: IKZF1
T1 construct: effects of the compounds of the present disclosure on the expression of target proteins in cells; endogenous in cells; host or cells: human PBMCs (hPBMCs)

WEE1 = biological target: T2, WEE1 (Homo sapiens, UniProt P30291+Q96SW2); experiment: Western-blot assay, substrate protein degradation in hPBMCs: WEE1
T2 construct: effects of the compounds of the present disclosure on the expression of target proteins in cells; endogenous in cells; host or cells: human PBMCs (hPBMCs)
T2 sequence (P30291 whole entry): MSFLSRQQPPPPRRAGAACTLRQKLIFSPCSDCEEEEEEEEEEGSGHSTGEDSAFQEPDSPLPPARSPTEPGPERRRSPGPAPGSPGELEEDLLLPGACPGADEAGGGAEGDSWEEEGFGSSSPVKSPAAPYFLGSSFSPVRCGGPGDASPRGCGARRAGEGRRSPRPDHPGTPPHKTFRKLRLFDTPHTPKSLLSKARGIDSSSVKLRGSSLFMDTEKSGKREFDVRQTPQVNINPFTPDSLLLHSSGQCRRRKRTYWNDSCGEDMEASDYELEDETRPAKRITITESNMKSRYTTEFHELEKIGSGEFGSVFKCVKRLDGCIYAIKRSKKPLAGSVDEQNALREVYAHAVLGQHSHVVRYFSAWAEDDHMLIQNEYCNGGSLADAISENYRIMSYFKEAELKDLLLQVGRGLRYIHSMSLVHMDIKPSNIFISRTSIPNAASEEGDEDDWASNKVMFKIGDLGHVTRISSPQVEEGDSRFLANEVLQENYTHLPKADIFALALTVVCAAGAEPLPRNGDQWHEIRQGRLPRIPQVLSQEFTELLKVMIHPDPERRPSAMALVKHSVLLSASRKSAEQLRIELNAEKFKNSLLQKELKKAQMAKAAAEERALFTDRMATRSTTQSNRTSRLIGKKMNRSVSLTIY
T2 sequence (Q96SW2 whole entry): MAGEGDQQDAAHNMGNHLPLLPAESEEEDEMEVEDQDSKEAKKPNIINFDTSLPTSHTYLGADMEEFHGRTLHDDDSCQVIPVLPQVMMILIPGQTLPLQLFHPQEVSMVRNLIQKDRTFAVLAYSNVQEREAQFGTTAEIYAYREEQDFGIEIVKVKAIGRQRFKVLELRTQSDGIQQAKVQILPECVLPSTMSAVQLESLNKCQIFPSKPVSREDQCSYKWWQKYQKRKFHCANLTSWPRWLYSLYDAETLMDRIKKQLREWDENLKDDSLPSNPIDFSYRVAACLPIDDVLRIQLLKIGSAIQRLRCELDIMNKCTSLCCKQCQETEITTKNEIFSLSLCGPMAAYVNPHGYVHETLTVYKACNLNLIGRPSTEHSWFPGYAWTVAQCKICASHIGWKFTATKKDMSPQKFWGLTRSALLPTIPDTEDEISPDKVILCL
T2 sequence (Q16531 whole entry partner): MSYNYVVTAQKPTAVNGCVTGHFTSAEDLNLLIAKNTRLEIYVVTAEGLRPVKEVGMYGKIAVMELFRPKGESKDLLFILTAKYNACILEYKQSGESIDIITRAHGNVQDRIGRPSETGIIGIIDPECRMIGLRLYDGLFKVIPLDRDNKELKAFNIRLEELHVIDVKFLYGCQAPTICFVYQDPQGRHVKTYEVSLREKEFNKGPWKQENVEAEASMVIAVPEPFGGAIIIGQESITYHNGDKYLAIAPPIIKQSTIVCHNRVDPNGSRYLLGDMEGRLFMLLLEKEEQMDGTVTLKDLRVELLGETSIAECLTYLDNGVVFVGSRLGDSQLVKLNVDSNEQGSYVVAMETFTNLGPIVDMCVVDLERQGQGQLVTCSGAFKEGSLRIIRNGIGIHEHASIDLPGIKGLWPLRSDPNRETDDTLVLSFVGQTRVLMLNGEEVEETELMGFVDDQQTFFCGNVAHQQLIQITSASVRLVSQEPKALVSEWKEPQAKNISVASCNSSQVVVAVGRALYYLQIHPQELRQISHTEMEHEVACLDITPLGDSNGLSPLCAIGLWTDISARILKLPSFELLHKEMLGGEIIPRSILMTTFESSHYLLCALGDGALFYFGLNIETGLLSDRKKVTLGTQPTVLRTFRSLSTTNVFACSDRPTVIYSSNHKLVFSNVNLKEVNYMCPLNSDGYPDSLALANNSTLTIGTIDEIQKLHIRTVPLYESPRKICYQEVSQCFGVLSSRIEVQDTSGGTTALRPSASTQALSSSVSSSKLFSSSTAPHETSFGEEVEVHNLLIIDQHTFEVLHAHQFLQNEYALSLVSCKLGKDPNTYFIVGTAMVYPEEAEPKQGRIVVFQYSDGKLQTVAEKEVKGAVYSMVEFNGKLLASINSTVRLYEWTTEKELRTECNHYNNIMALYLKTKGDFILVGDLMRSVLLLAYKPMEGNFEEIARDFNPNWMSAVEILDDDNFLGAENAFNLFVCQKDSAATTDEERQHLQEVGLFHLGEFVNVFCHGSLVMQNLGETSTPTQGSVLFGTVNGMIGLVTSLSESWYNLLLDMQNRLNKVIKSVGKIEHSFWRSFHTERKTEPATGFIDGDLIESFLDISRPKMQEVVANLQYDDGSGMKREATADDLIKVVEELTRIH

IKZF2 = biological target: T3, IKZF2 (Homo sapiens, UniProt Q96SW2+Q9UKS7); experiment: Western-blot assay, substrate protein degradation in hPBMCs: IKZF2
T3 construct: effects of the compounds of the present disclosure on the expression of target proteins in cells; endogenous in cells; host or cells: human PBMCs (hPBMCs)
T3 sequence (Q9UKS7 whole entry): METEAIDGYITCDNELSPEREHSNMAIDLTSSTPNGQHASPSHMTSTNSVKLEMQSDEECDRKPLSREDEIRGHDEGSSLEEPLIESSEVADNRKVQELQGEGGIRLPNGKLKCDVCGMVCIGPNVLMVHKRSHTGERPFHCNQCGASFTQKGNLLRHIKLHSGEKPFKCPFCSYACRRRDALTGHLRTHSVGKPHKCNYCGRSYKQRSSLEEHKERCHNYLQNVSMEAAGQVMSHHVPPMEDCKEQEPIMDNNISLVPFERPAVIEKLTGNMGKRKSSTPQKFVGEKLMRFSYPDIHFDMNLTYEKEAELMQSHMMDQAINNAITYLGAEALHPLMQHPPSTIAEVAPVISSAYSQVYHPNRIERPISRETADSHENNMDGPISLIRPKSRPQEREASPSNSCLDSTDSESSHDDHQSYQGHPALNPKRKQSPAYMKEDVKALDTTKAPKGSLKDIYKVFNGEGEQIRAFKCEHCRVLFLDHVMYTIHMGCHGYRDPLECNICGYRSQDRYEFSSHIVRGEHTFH
T3 sequence (Q96SW2 whole entry): as the sequence (Q96SW2 whole entry) above
T3 sequence (Q16531 whole entry partner): as the sequence (Q16531 whole entry partner) above

GSPT1 = biological target: T4, GSPT1 (Homo sapiens, UniProt P15170+Q96SW2); experiment: Western-blot assay, substrate protein degradation in hPBMCs: GSPT1
T4 construct: effects of the compounds of the present disclosure on the expression of target proteins in cells; endogenous in cells; host or cells: human PBMCs (hPBMCs)
T4 sequence (P15170 whole entry): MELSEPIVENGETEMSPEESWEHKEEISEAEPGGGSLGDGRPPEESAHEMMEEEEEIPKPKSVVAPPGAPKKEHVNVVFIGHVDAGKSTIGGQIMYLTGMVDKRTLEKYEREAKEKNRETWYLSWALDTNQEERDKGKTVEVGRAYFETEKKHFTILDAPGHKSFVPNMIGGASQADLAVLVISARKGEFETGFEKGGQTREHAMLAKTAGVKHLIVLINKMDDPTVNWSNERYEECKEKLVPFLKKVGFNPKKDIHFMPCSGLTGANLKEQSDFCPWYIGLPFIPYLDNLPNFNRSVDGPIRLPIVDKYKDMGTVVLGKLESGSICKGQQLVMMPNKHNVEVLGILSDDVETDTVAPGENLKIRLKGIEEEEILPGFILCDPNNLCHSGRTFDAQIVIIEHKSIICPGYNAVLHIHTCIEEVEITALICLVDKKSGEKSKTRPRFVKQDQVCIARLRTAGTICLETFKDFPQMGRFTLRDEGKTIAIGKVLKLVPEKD
T4 sequence (Q96SW2 whole entry): as the sequence (Q96SW2 whole entry) above
T4 sequence (Q16531 whole entry partner): as the sequence (Q16531 whole entry partner) above

IKZF3 = biological target: T5, IKZF3 (Homo sapiens, UniProt Q96SW2+Q9UKT9); experiment: Western-blot assay, substrate protein degradation in hPBMCs: IKZF3
T5 construct: effects of the compounds of the present disclosure on the expression of target proteins in cells; endogenous in cells; host or cells: human PBMCs (hPBMCs)
T5 sequence (Q9UKT9 whole entry): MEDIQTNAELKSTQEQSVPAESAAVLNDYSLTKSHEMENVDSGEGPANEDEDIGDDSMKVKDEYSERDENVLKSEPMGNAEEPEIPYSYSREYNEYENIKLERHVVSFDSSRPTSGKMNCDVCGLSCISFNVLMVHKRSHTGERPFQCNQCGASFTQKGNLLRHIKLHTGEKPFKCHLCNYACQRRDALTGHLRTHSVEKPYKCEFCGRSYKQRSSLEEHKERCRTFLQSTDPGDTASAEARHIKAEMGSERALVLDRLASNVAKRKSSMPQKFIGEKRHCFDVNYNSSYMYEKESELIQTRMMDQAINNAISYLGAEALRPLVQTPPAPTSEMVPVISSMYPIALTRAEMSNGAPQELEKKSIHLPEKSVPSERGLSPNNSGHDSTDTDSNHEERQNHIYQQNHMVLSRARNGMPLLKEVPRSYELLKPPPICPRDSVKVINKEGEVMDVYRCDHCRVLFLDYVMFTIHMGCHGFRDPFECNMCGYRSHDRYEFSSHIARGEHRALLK
T5 sequence (Q96SW2 whole entry): as the sequence (Q96SW2 whole entry) above
T5 sequence (Q16531 whole entry partner): as the sequence (Q16531 whole entry partner) above

CK1α = biological target: T6, CK1α (Homo sapiens, UniProt P48729+Q96SW2); experiment: Western-blot assay, substrate protein degradation in hPBMCs: CK1α
T6 construct: effects of the compounds of the present disclosure on the expression of target proteins in cells; endogenous in cells; host or cells: human PBMCs (hPBMCs)
T6 sequence (P48729 whole entry): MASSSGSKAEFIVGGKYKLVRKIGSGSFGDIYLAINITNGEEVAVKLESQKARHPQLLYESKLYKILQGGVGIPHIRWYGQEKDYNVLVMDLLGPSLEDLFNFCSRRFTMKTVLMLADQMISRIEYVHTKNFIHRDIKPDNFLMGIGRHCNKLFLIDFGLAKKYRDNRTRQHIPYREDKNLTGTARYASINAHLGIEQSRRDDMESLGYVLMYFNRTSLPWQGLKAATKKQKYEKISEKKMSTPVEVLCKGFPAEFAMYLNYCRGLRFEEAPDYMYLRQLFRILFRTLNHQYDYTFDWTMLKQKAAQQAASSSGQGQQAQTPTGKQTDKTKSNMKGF
T6 sequence (Q96SW2 whole entry): as the sequence (Q96SW2 whole entry) above
T6 sequence (Q16531 whole entry partner): as the sequence (Q16531 whole entry partner) above

Structure (SMILES)	IKZF1 substrate protein remaining % (IKZF1)	WEE1 substrate protein remaining % (WEE1)	IKZF2 substrate protein remaining % (IKZF2)	GSPT1 substrate protein remaining % (GSPT1)	IKZF3 substrate protein remaining % (IKZF3)	CK1α substrate protein remaining % (CK1α)
Cn1cc(C2=CCN(Cc3ccc4c(c3)C(=O)N(N3CCC(=O)NC3=O)C4=O)CC2)c2ccc(F)cc21 [GT-05276, 2-(2,4-dioxotetrahydropyrimidin-1(2H)-yl)-5-((4-(6-fluoro-1-methyl-1H-indol-3-yl)-3,6-dihydropyridin-1(2H)-yl)methyl)isoindoline-1,3-dione]	B ("B" is defined as 80%< substrate protein remaining %≤ 100%)	B ("B" is defined as 80%< substrate protein remaining %≤ 100%)	B ("B" is defined as 80%< substrate protein remaining %≤ 100%)	A ("A" is defined as 0% ≤ substrate protein remaining % ≤ 80%)	A ("A" is defined as 0% ≤ substrate protein remaining % ≤ 80%)	B ("B" is defined as 80%< substrate protein remaining %≤ 100%)
Cc1ccc(N2CCN(Cc3ccc4c(c3)C(=O)N(N3CCC(=O)NC3=O)C4=O)CC2)s1 [GT-05309, 2-(2,4-dioxotetrahydropyrimidin-1(2H)-yl)-5-((4-(5-methylthiophen-2-yl)piperazin-1-yl)methyl)isoindoline-1,3-dione]	B ("B" is defined as 80%< substrate protein remaining %≤ 100%)	B ("B" is defined as 80%< substrate protein remaining %≤ 100%)	B ("B" is defined as 80%< substrate protein remaining %≤ 100%)	A ("A" is defined as 0% ≤ substrate protein remaining % ≤ 80%)	B ("B" is defined as 80%< substrate protein remaining %≤ 100%)	B ("B" is defined as 80%< substrate protein remaining %≤ 100%)
Cc1ccc(C2=CCN(Cc3ccc4c(c3)C(=O)N(N3CCC(=O)NC3=O)C4=O)CC2)s1 [GT-05310, 2-(2,4-dioxotetrahydropyrimidin-1(2H)-yl)-5-((4-(5-methylthiophen-2-yl)-3,6-dihydropyridin-1(2H)-yl)methyl)isoindoline-1,3-dione]	B ("B" is defined as 80%< substrate protein remaining %≤ 100%)	B ("B" is defined as 80%< substrate protein remaining %≤ 100%)	B ("B" is defined as 80%< substrate protein remaining %≤ 100%)	A ("A" is defined as 0% ≤ substrate protein remaining % ≤ 80%)	B ("B" is defined as 80%< substrate protein remaining %≤ 100%)	B ("B" is defined as 80%< substrate protein remaining %≤ 100%)
O=C1CCN(N2C(=O)c3ccc(CN4CCN(c5ccsc5)CC4)cc3C2=O)C(=O)N1 [GT-05313, 2-(2,4-dioxotetrahydropyrimidin-1(2H)-yl)-5-((4-(thiophen-3-yl)piperazin-1-yl)methyl)isoindoline-1,3-dione]	B ("B" is defined as 80%< substrate protein remaining %≤ 100%)	B ("B" is defined as 80%< substrate protein remaining %≤ 100%)	B ("B" is defined as 80%< substrate protein remaining %≤ 100%)	A ("A" is defined as 0% ≤ substrate protein remaining % ≤ 80%)	B ("B" is defined as 80%< substrate protein remaining %≤ 100%)	B ("B" is defined as 80%< substrate protein remaining %≤ 100%)
Cc1cscc1C1CCN(Cc2ccc3c(c2)C(=O)N(N2CCC(=O)NC2=O)C3=O)CC1 [GT-05314, 2-(2,4-dioxotetrahydropyrimidin-1(2H)-yl)-5-((4-(4-methylthiophen-3-yl)piperidin-1-yl)methyl)isoindoline-1,3-dione]	B ("B" is defined as 80%< substrate protein remaining %≤ 100%)	B ("B" is defined as 80%< substrate protein remaining %≤ 100%)	B ("B" is defined as 80%< substrate protein remaining %≤ 100%)	A ("A" is defined as 0% ≤ substrate protein remaining % ≤ 80%)	B ("B" is defined as 80%< substrate protein remaining %≤ 100%)	B ("B" is defined as 80%< substrate protein remaining %≤ 100%)
O=C1CCN(N2C(=O)c3ccc(CN4CCC(c5ccco5)CC4)cc3C2=O)C(=O)N1 [GT-05315, 2-(2,4-dioxotetrahydropyrimidin-1(2H)-yl)-5-((4-(furan-2-yl)piperidin-1-yl)methyl)isoindoline-1,3-dione]	B ("B" is defined as 80%< substrate protein remaining %≤ 100%)	B ("B" is defined as 80%< substrate protein remaining %≤ 100%)	B ("B" is defined as 80%< substrate protein remaining %≤ 100%)	A ("A" is defined as 0% ≤ substrate protein remaining % ≤ 80%)	B ("B" is defined as 80%< substrate protein remaining %≤ 100%)	B ("B" is defined as 80%< substrate protein remaining %≤ 100%)
Cc1cscc1C1=CCN(Cc2ccc3c(c2)C(=O)N(N2CCC(=O)NC2=O)C3=O)CC1 [GT-05316, 2-(2,4-dioxotetrahydropyrimidin-1(2H)-yl)-5-((4-(4-methylthiophen-3-yl)-3,6-dihydropyridin-1(2H)-yl)methyl)isoindoline-1,3-dione]	B ("B" is defined as 80%< substrate protein remaining %≤ 100%)	B ("B" is defined as 80%< substrate protein remaining %≤ 100%)	B ("B" is defined as 80%< substrate protein remaining %≤ 100%)	A ("A" is defined as 0% ≤ substrate protein remaining % ≤ 80%)	B ("B" is defined as 80%< substrate protein remaining %≤ 100%)	B ("B" is defined as 80%< substrate protein remaining %≤ 100%)
O=C1CCN(N2C(=O)c3ccc(CN4CC=C(c5ccco5)CC4)cc3C2=O)C(=O)N1 [GT-05317, 2-(2,4-dioxotetrahydropyrimidin-1(2H)-yl)-5-((4-(furan-2-yl)-3,6-dihydropyridin-1(2H)-yl)methyl)isoindoline-1,3-dione]	B ("B" is defined as 80%< substrate protein remaining %≤ 100%)	B ("B" is defined as 80%< substrate protein remaining %≤ 100%)	B ("B" is defined as 80%< substrate protein remaining %≤ 100%)	A ("A" is defined as 0% ≤ substrate protein remaining % ≤ 80%)	B ("B" is defined as 80%< substrate protein remaining %≤ 100%)	B ("B" is defined as 80%< substrate protein remaining %≤ 100%)
O=C1CCN(N2C(=O)c3ccc(CN4CCN(c5ccc(Cl)cn5)CC4)cc3C2=O)C(=O)N1 [GT-05350, 5-((4-(5-chloropyridin-2-yl)piperazin-1-yl)methyl)-2-(2,4-dioxotetrahydropyrimidin-1(2H)-yl)isoindoline-1,3-dione]	B ("B" is defined as 80%< substrate protein remaining %≤ 100%)	B ("B" is defined as 80%< substrate protein remaining %≤ 100%)	B ("B" is defined as 80%< substrate protein remaining %≤ 100%)	A ("A" is defined as 0% ≤ substrate protein remaining % ≤ 80%)	B ("B" is defined as 80%< substrate protein remaining %≤ 100%)	B ("B" is defined as 80%< substrate protein remaining %≤ 100%)
Cc1cccc(N2CCN(Cc3ccc4c(c3)C(=O)N(N3CCC(=O)NC3=O)C4=O)CC2)n1 [GT-05352, 2-(2,4-dioxotetrahydropyrimidin-1(2H)-yl)-5-((4-(6-methylpyridin-2-yl)piperazin-1-yl)methyl)isoindoline-1,3-dione]	B ("B" is defined as 80%< substrate protein remaining %≤ 100%)	B ("B" is defined as 80%< substrate protein remaining %≤ 100%)	A ("A" is defined as 0% ≤ substrate protein remaining % ≤ 80%)	A ("A" is defined as 0% ≤ substrate protein remaining % ≤ 80%)	B ("B" is defined as 80%< substrate protein remaining %≤ 100%)	B ("B" is defined as 80%< substrate protein remaining %≤ 100%)
O=C1CCN(N2Cc3cc(CN4CCN(c5nccc(Cl)c5F)CC4)ccc3C2=O)C(=O)N1 [GT-05358, 1-(5-((4-(4-chloro-3-fluoropyridin-2-yl)piperazin-1-yl)methyl)-1-oxoisoindolin-2-yl)dihydropyrimidine-2,4(1H,3H)-dione]	B ("B" is defined as 80%< substrate protein remaining %≤ 100%)	B ("B" is defined as 80%< substrate protein remaining %≤ 100%)	B ("B" is defined as 80%< substrate protein remaining %≤ 100%)	A ("A" is defined as 0% ≤ substrate protein remaining % ≤ 80%)	B ("B" is defined as 80%< substrate protein remaining %≤ 100%)	B ("B" is defined as 80%< substrate protein remaining %≤ 100%)
